{"source": "patent US12226380B2", "about": "“Method of regulating immunity in the intestines” (Monell Chemical Senses Center, priority 2016, dated 2025)", "key": {"[1]": {"system": "N. brasiliensis or Helgomosomoides polygyrus", "conditions": "mice with free access to 100 mM succinate, infected with intestinal parasites, up to two weeks post-infection; anticipated", "procedure": "For treatment of parasitic infection, mice are provided with free access to a drinking sprout containing 100 mM succinate (or other SucnR1 agonist) or plain water. Mice are then infected with intestinal parasites, such as N. brasiliensis or Helgomosomoides polygyrus. Mice are examined for the presence of worm (worm burden) in the small intestine, caecum, as well as feces for up to two weeks post-infection.\nSimilarly, the feces is examined for the presence of parasitic eggs."}, "DSS-induced colitis": {"system": "DSS-induced colitis", "conditions": "DSS-treated mice, 100 mM succinate in drinking water vs plain water; anticipated", "procedure": "Mice are treated with DSS to induce intestinal damage. Mice are then provided with a drinking sprout containing 100 mM succinate or plain water. Gut tissue is collected and evaluated for the clinical and histological changes."}}, "data": [{"smiles": "O=C(O)CCC(=O)O", "note": "[succinate]", "values": [{"measurement": "expelling of helminths (worm burden)", "setting": "[1]", "result": "expedited expelling of helminths from the body"}, {"measurement": "clinical outcome (clinical and histological changes of gut tissue)", "setting": "DSS-induced colitis", "result": "better clinical outcome"}]}]}
